Measurements as given in US11666577B2 (National Institute of Biological Sciences, Beijing, priority 2018, dated 2023).

These compounds were tested on HT-29 cells (assay: Necroptosis assay (TNF-α/Smac mimetic/z-VAD, TSZ-induced) in HT-29 cells). Conditions: Homo sapiens; Series 1 (Table 1) compounds 1-146; HT-29 cells, TNF-α/Smac mimetic/z-VAD, 24 hrs, cell viability by ATP level; read-out: Series 1 compound necroptosis activity.
Assay type: cell-based, human
Outline: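 HT-29 cells were challenged with 20 ng/ml TNF-α, 100 nM Smac mimetic and 20 mM z-VAD while compound was added at the same time (library screen at 10 mM). After 24 h, viability was read as ATP luminescence (CellTiter-Glo) and normalized to DMSO-treated cells; values are means ± SD of duplicates.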

Question: With `Cn1c(=O)c2c(nc(S(=O)(=O)Cc3ccccc3)n2C)n(C)c1=O` [Compound 21, 8-(benzylsulfonyl)-1,3,7-trimethyl-1H-purine-2,6(3H,7H)-dione] as the compound, how does the EC50 read?
Answer: 1 to 100 µM

Question: For `Cn1c(=O)c2c(nc(S(=O)(=O)CC3CC3)n2C)n(Cc2ccccc2F)c1=O` [Compound 133, 8-((cyclopropylmethyl)sulfonyl)-3-(2-fluorobenzyl)-1,7-dimethyl-1H-purine-2,6(3H,7H)-dione], which EC50 is on record?
Answer: 1 to 100 µM

Question: `Cn1c(=O)c2c(nc(S(=O)(=O)Cc3cc(Cl)cc(Cl)c3)n2C)n(C)c1=O` [Compound 56, 8-(3,5-dichlorobenzylsulfonyl)-1,3,7-trimethyl-1H-purine-2,6(3H,7H)-dione] was tested. Which EC50 did it give?
Answer: 1 to 100 µM

Question: How did the EC50 turn out when `Cn1c(=O)c2c(nc(S(C)(=O)=O)n2C)n(CC2CC2)c1=O` [Compound 102, 3-(cyclopropylmethyl)-1,7-dimethyl-8-(methylsulfonyl)-1H-purine-2,6(3H,7H)-dione] was run?
Answer: 1 to 100 µM

Question: For `CC(C)S(=O)(=O)c1nc2c(c(=O)n(C)c(=O)n2C)n1C` [Compound 18], which EC50 is on record?
Answer: 1 to 100 µM

Question: `Cn1c(=O)c2c(nc(S(=O)(=O)CC3CC3)n2C)n(Cc2cccc(F)c2)c1=O` [Compound 134, 8-((cyclopropylmethyl)sulfonyl)-3-(3-fluorobenzyl)-1,7-dimethyl-1H-purine-2,6(3H,7H)-dione] was tested. Which EC50 did it give?
Answer: 1 to 100 µM

Question: With `CCn1c(S(=O)(=O)CC2CC2)nc2c1c(=O)n(C)c(=O)n2C` [Compound 82] as the compound, how does the EC50 read?
Answer: 1 to 100 µM

Same assay, conditions: Homo sapiens; Series 2 (Table 2) compounds; HT-29 necroptosis assay; read-out: Series 2 compound necroptosis activity

Question: How did the EC50 turn out when `Cn1c(=O)c2c(nc(S(C)(=O)=O)n2C)n(CC#Cc2cc(NC(=O)CN3CCOCC3)cc(NC(=O)CN3CCOCC3)c2)c1=O` [Compound 26] was run?
Answer: 0.001 to 0.1 µM

Question: Which EC50 does the source give for `Cn1c(=O)c2c(nc(S(C)(=O)=O)n2C)n(CC#Cc2cc(NC(=O)C3CC3)cc(C(F)(F)F)c2)c1=O` [Compound 44] here?
Answer: 0.001 to 0.1 µM

Question: With `CCCNS(=O)(=O)c1nc2c(c(=O)n(C)c(=O)n2C)n1C` [Compound 58] as the compound, how does the EC50 read?
Answer: 10 to 100 µM

Question: For `Cn1c(=O)c2c(nc(S(C)(=O)=O)n2C)n(CC#Cc2ccc3[nH]c(=O)[nH]c3c2)c1=O` [Compound 23], which EC50 is on record?
Answer: 0.1 to 10 µM

Question: `Cn1c(=O)c2c(nc(S(C)(=O)=O)n2C)n(CC#Cc2cc(F)cc(NC(=O)CN3CCOCC3)c2)c1=O` [Compound 20] was tested. Which EC50 did it give?
Answer: 0.001 to 0.1 µM

Question: `CC(C)Nc1cc(C#CCn2c(=O)n(C)c(=O)c3c2nc(S(=O)(=O)CC2CC2)n3C)ccn1` [Compound 35] was tested. Which EC50 did it give?
Answer: 0.001 to 0.1 µM

Same assay, conditions: Series 1 (Table 1) compounds 1-146; HT-29 cells, TNF-α/Smac mimetic/z-VAD, 24 hrs, cell viability by ATP level; read-out: Series 1 compound necroptosis activity

Question: With `Cn1c(=O)c2c(nc(S(=O)(=O)Cc3ccc(Br)c(Cl)c3)n2C)n(C)c1=O` [Compound 64, 8-(4-bromo-3-chlorobenzylsulfonyl)-1,3,7-trimethyl-1H-purine-2,6(3H,7H)-dione] as the compound, how does the EC50 read?
Answer: 1 to 1000 µM

Question: For `CC[S+]([O-])c1nc2c(c(=O)n(C)c(=O)n2C)n1C` (stereo not shown) [Compound 6, 8-(ethylsulfinyl)-1,3,7-trimethyl-1H-purine-2,6(3H,7H)-dione], which EC50 is on record?
Answer: 1 to 1000 µM

Question: With `Cn1c(=O)c2c(nc(S(=O)(=O)CC3CC3)n2C)n(Cc2ccccn2)c1=O` [Compound 142, 8-((cyclopropylmethyl)sulfonyl)-1,7-dimethyl-3-(pyridin-2-ylmethyl)-1H-purine-2,6(3H,7H)-dione] as the compound, how does the EC50 read?
Answer: 1 to 1000 µM

Question: `CCCS(=O)(=O)c1nc2c(c(=O)n(C)c(=O)n2C)n1CC` [Compound 80, 7-ethyl-1,3-dimethyl-8-(propylsulfonyl)-1H-purine-2,6(3H,7H)-dione] was tested. Which EC50 did it give?
Answer: 1 to 1000 µM

Question: Which EC50 does the source give for `Cn1c(=O)c2c(nc(S(=O)(=O)Cc3ccccc3[N+](=O)[O-])n2C)n(C)c1=O` [Compound 38, 1,3,7-trimethyl-8-(2-nitrobenzylsulfonyl)-1H-purine-2,6(3H,7H)-dione] here?
Answer: 1 to 1000 µM

Question: How did the EC50 turn out when `Cn1c(=O)c2c(nc(S(=O)(=O)Cc3ccc(Br)cc3)n2C)n(C)c1=O` [Compound 34, 8-(4-bromobenzylsulfonyl)-1,3,7-trimethyl-1H-purine-2,6(3H,7H)-dione] was run?
Answer: 1 to 1000 µM

Question: Which EC50 does the source give for `Cn1c(=O)c2c(nc(S(=O)(=O)c3ccccc3)n2C)n(C)c1=O` [Compound 20, 1,3,7-trimethyl-8-(phenylsulfonyl)-1H-purine-2,6(3H,7H)-dione] here?
Answer: 1 to 1000 µM

Question: Which EC50 does the source give for `Cn1c(=O)c2c(nc(S(=O)(=O)Cc3ccccn3)n2C)n(C)c1=O` [Compound 48, 1,3,7-trimethyl-8-(pyridin-2-ylmethylsulfonyl)-1H-purine-2,6(3H,7H)-dione] here?
Answer: 1 to 1000 µM

Question: For `Cn1c(=O)c2c(nc(S(C)(=O)=O)n2CC#N)n(C)c1=O` [Compound 84, 2-(1,3-dimethyl-8-(methylsulfonyl)-2,6-dioxo-2,3-dihydro-1H-purin-7(6H)-yl)acetonitrile], which EC50 is on record?
Answer: 1 to 1000 µM

Question: With `Cn1c(=O)c2c(nc(S(=O)(=O)Cc3cccc[n+]3[O-])n2C)n(C)c1=O` [Compound 49, 2-((1,3,7-trimethyl-2,6-dioxo-2,3,6,7-tetrahydro-1H-purin-8-ylsulfonyl)methyl)pyridine 1-oxide] as the compound, how does the EC50 read?
Answer: 1 to 1000 µM

Question: `Cn1c(=O)c2c(nc(S(=O)(=O)Cc3ccc4ccccc4c3)n2C)n(C)c1=O` [Compound 23, 1,3,7-trimethyl-8-(naphthalen-2-ylmethylsulfonyl)-1H-purine-2,6(3H,7H)-dione] was tested. Which EC50 did it give?
Answer: 1 to 1000 µM

Question: `Cn1c(=O)c2c(nc(S(=O)(=O)Cc3cccc(F)c3)n2C)n(C)c1=O` [Compound 27, 8-(3-fluorobenzylsulfonyl)-1,3,7-trimethyl-1H-purine-2,6(3H,7H)-dione] was tested. Which EC50 did it give?
Answer: 1 to 1000 µM

Question: `COc1cc(CS(=O)(=O)c2nc3c(c(=O)n(C)c(=O)n3C)n2C)c(OC)cc1Cl` [Compound 70, 8-(4-chloro-2,5-dimethoxybenzylsulfonyl)-1,3,7-trimethyl-1H-purine-2,6(3H,7H)-dione] was tested. Which EC50 did it give?
Answer: 1 to 1000 µM

Question: How did the EC50 turn out when `CCSc1nc2c(c(=O)n(C)c(=O)n2C)n1C` [Compound 5, 8-(ethylthio)-1,3,7-trimethyl-1H-purine-2,6(3H,7H)-dione] was run?
Answer: 1 to 1000 µM

Question: With `Cn1c(=O)c2c(nc(S(=O)(=O)Cc3c(Cl)cccc3Cl)n2C)n(C)c1=O` [Compound 57, 8-(2,6-dichlorobenzylsulfonyl)-1,3,7-trimethyl-1H-purine-2,6(3H,7H)-dione] as the compound, how does the EC50 read?
Answer: 1 to 1000 µM

Question: With `Cn1c(S(C)(=O)=O)nc2c1c(=O)n(CC1CC1)c(=O)n2C` [Compound 91, 1-(cyclopropylmethyl)-3,7-dimethyl-8-(methylsulfonyl)-1H-purine-2,6(3H,7H)-dione] as the compound, how does the EC50 read?
Answer: 1 to 1000 µM

Question: For `Cc1c2c(=O)n(C)c(=O)n(C)c2nn1S(C)(=O)=O` [Compound 145, 3,5,7-trimethyl-2-(methylsulfonyl)-2H-pyrazolo[3,4-d]pyrimidine-4,6(5H,7H)-dione], which EC50 is on record?
Answer: 1 to 1000 µM

Question: How did the EC50 turn out when `Cn1c(=O)c2c(nc(S(=O)(=O)Cc3cccc(C(N)=O)c3)n2C)n(C)c1=O` [Compound 46, 3-((1,3,7-trimethyl-2,6-dioxo-2,3,6,7-tetrahydro-1H-purin-8-ylsulfonyl)methyl)benzamide] was run?
Answer: 1 to 1000 µM

Question: With `CCn1c(S(=O)(=O)CC)nc2c1c(=O)n(C)c(=O)n2C` [Compound 77, 7-ethyl-8-(ethylsulfonyl)-1,3-dimethyl-1H-purine-2,6(3H,7H)-dione] as the compound, how does the EC50 read?
Answer: 1 to 1000 µM

Question: `CSc1nc2c(c(=O)n(C)c(=O)n2C)n1CC(N)=O` [Compound 85, 2-(1,3-dimethyl-8-(methylthio)-2,6-dioxo-2,3-dihydro-1H-purin-7(6H)-yl)acetamide] was tested. Which EC50 did it give?
Answer: 1 to 1000 µM

Question: With `CCOc1ccc(OC)c(CS(=O)(=O)c2nc3c(c(=O)n(C)c(=O)n3C)n2C)c1` [Compound 67, 8-(5-ethoxy-2-methoxybenzylsulfonyl)-1,3,7-trimethyl-1H-purine-2,6(3H,7H)-dione] as the compound, how does the EC50 read?
Answer: 1 to 1000 µM

Question: `Cn1c(=O)c2nc(S(C)(=O)=O)n(C)c2n(C)c1=O` [Compound 146, 1,3,9-trimethyl-8-(methylsulfonyl)-3,9-dihydro-1H-purine-2,6-dione] was tested. Which EC50 did it give?
Answer: 1 to 1000 µM

Question: `CCC[S+]([O-])c1nc2c(c(=O)n(C)c(=O)n2C)n1CC` (stereo not shown) [Compound 79, 7-ethyl-1,3-dimethyl-8-(propylsulfinyl)-1H-purine-2,6(3H,7H)-dione] was tested. Which EC50 did it give?
Answer: 1 to 1000 µM

Question: With `Cn1c(=O)c2c(nc([S+](C)[O-])n2C)n(C)c1=O` (stereo not shown) [Compound 3, 1,3,7-trimethyl-8-(methylsulfinyl)-1H-purine-2,6(3H,7H)-dione] as the compound, how does the EC50 read?
Answer: 1 to 1000 µM

Question: `Cn1c(=O)c2c(nc(S(=O)(=O)Cc3ccccc3C(N)=O)n2C)n(C)c1=O` [Compound 45, 2-((1,3,7-trimethyl-2,6-dioxo-2,3,6,7-tetrahydro-1H-purin-8-ylsulfonyl)methyl)benzamide] was tested. Which EC50 did it give?
Answer: 1 to 1000 µM

Question: With `Cn1c(=O)c2c(nc(S(=O)(=O)Cc3cccc(Br)c3)n2C)n(C)c1=O` [Compound 33, 8-(3-bromobenzylsulfonyl)-1,3,7-trimethyl-1H-purine-2,6(3H,7H)-dione] as the compound, how does the EC50 read?
Answer: 1 to 1000 µM

Same assay, conditions: Series 1 (Table 1) compounds 147-176; activity extrapolated; read-out: Series 1 compound necroptosis activity (extrapolated)

Question: For `C=CC(=O)Nc1cccc(C#CCn2c(=O)n(C)c(=O)c3c2nc(S(=O)(=O)CC2CC2)n3C)c1` [Compound 160], which EC50 is on record?
Answer: 1 to 1000 µM

Question: Which EC50 does the source give for `CNC/C=C/c1ccc(Cn2c(=O)n(C)c(=O)c3c2nc(S(=O)(=O)CC2CC2)n3C)s1` [Compound 173] here?
Answer: 1 to 1000 µM

Question: For `CCCNc1cccc(C#CCn2c(=O)n(C)c(=O)c3c2nc(S(C)(=O)=O)n3C)c1` [Compound 162], which EC50 is on record?
Answer: 1 to 1000 µM

Question: Which EC50 does the source give for `Cn1c(=O)c2c(nc(S(C)(=O)=O)n2C)n(CC#Cc2ccc3cc[nH]c3c2)c1=O` [Compound 163] here?
Answer: 1 to 1000 µM

Question: Which EC50 does the source give for `C=CC(=O)Nc1cccc(C#CCn2c(=O)n(C)c(=O)c3c2nc(S(=O)(=O)CCO)n3C)c1` [Compound 159] here?
Answer: 1 to 1000 µM

Same assay, conditions: Series 1 (Table 1) compounds; HT-29 cells, TNF-α/Smac mimetic/z-VAD, 24 hrs, cell viability by ATP level; read-out: Series 1 compound necroptosis activity

Question: For `Cn1c(=O)c2c(nc(S(C)(=O)=O)n2C)n(Cc2cccs2)c1=O` [Compound 131, 1,7-dimethyl-8-(methylsulfonyl)-3-(thiophen-2-ylmethyl)-1H-purine-2,6(3H,7H)-dione], which EC50 is on record?
Answer: 0.001 to 1 µM

Same assay, conditions: read-out: Series 1 compound necroptosis activity

Question: With `COc1cc(CS(=O)(=O)c2nc3c(c(=O)n(C)c(=O)n3C)n2C)cc(OC)c1` [Compound 59, 8-(3,5-dimethoxybenzylsulfonyl)-1,3,7-trimethyl-1H-purine-2,6(3H,7H)-dione] as the compound, how does the EC50 read?
Answer: 1 to 1000 µM
